Measured values reported in the supplement of paper PMC10307832.

Tests used:
Experiment in all cases: relative viability (nuclei count vs DMSO), 5 days (fraction); higher = more cells survive
AZD5582 + Trametinib = compound: C[C@@H](C(=O)N[C@@H](C1CCCCC1)C(=O)N2CCC[C@H]2C(=O)N[C@@H]3[C@@H](CC4=CC=CC=C34)OCC#CC#CCO[C@@H]5CC6=CC=CC=C6[C@@H]5NC(=O)[C@@H]7CCCN7C(=O)[C@H](C8CCCCC8)NC(=O)[C@H](C)NC)NC [AZD5582] + CC(=O)Nc1cccc(-n2c(=O)n(C3CC3)c(=O)c3c(Nc4ccc(I)cc4F)n(C)c(=O)c(C)c32)c1 [Trametinib] (partner 0.02 µM)
Procedure, shortened: (§1)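 Lung cancer cell lines were pin-tool dosed in 1536-well plates on the day after seeding, with either a lone drug or a fixed anchor-drug dose plus five library-drug doses (not always all listed) in √10 steps. Nuclei were counted on 4× images after 5 days. Relative viability is the ratio of treated-well to vehicle-well nuclei counts, with each value a median of duplicate plates.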

[1] = compound: Cn1nnc2c(C(N)=O)ncn2c1=O [Temozolomide] + N=C(N)NC(=N)NCCc1ccccc1 [Phenformin] (partner 250 µM)
Procedure, shortened: as §1

AZD5582 + Pictilisib = compound: C[C@@H](C(=O)N[C@@H](C1CCCCC1)C(=O)N2CCC[C@H]2C(=O)N[C@@H]3[C@@H](CC4=CC=CC=C34)OCC#CC#CCO[C@@H]5CC6=CC=CC=C6[C@@H]5NC(=O)[C@@H]7CCCN7C(=O)[C@H](C8CCCCC8)NC(=O)[C@H](C)NC)NC [AZD5582] + CS(=O)(=O)N1CCN(Cc2cc3nc(-c4cccc5[nH]ncc45)nc(N4CCOCC4)c3s2)CC1 [Pictilisib] (partner 1 µM)
Procedure, shortened: as §1

AZD5582 + AZD7762 = compound: C[C@@H](C(=O)N[C@@H](C1CCCCC1)C(=O)N2CCC[C@H]2C(=O)N[C@@H]3[C@@H](CC4=CC=CC=C34)OCC#CC#CCO[C@@H]5CC6=CC=CC=C6[C@@H]5NC(=O)[C@@H]7CCCN7C(=O)[C@H](C8CCCCC8)NC(=O)[C@H](C)NC)NC [AZD5582] + NC(=O)Nc1cc(-c2cccc(F)c2)sc1C(=O)N[C@H]1CCCNC1 [AZD7762] (partner 0.2 µM)
Procedure, shortened: as §1

| Cell Line | relative viability (AZD5582 + Trametinib; first compound 0.001581 µM) | relative viability (AZD5582 + Trametinib; first compound 0.005 µM) | relative viability (AZD5582 + Trametinib; first compound 0.01581 µM) | relative viability (AZD5582 + Trametinib; first compound 0.05 µM) | relative viability ([1]; first compound 0.2 µM) | relative viability ([1]; first compound 0.6325 µM) | relative viability ([1]; first compound 2 µM) | relative viability ([1]; first compound 6.325 µM) | relative viability ([1]; first compound 20 µM) | relative viability (AZD5582 + Pictilisib; first compound 0.001581 µM) | relative viability (AZD5582 + Pictilisib; first compound 0.005 µM) | relative viability (AZD5582 + Pictilisib; first compound 0.01581 µM) | relative viability (AZD5582 + Pictilisib; first compound 0.05 µM) | relative viability (AZD5582 + AZD7762; first compound 0.001581 µM) | relative viability (AZD5582 + AZD7762; first compound 0.005 µM) | relative viability (AZD5582 + AZD7762; first compound 0.01581 µM) | relative viability (AZD5582 + AZD7762; first compound 0.05 µM) |
| --- | --- | --- | --- | --- | --- | --- | --- | --- | --- | --- | --- | --- | --- | --- | --- | --- | --- |
| EKVX | 0.276 | 0.405 | 0.289 | 0.376 | 0.185 | 0.232 | 0.232 | 0.236 | 0.216 | 0.399 | 0.568 | 0.362 | 0.513 | 0.603 | 0.661 | 0.565 | 0.595 |
| NCI-H1915 | 0.309 | 0.294 | 0.296 | 0.373 | 0.393 | 0.385 | 0.35 | 0.268 | 0.259 | 0.88 | 0.999 | 0.824 | 0.936 | 0.657 | 0.672 | 0.673 | 0.495 |
| NCI-H1395 | 0.961 | 1.22 | – | 1.28 | 0.458 | 0.428 | 0.494 | 0.435 | 0.461 | 0.601 | 0.698 | – | 0.632 | 0.346 | 0.376 | – | 0.406 |
| HCC-366 | 0.304 | 0.339 | 0.413 | 0.458 | 0.639 | 0.647 | 0.631 | 0.621 | 0.62 | 0.0939 | 0.203 | 0.102 | 0.205 | 0.132 | 0.285 | 0.33 | 0.41 |
| HCC-44 | 0.883 | 0.967 | 1.02 | 0.878 | 0.194 | 0.238 | 0.17 | 0.185 | 0.315 | 0.485 | 0.6 | 0.461 | 0.233 | 0.9 | 1.01 | 1.05 | 1.03 |
| COR-L 105 | 0.445 | 0.517 | 0.427 | 0.539 | 0.452 | 0.603 | 0.594 | 0.452 | 0.305 | 0.413 | 0.505 | 0.288 | 0.412 | – | – | – | – |
| LK-2 | 0.466 | 0.81 | 0.731 | 1.04 | 0.502 | 0.568 | 0.455 | 0.179 | 0.194 | 0.474 | 0.575 | 0.581 | 0.603 | 0.249 | 0.537 | – | 0.338 |
| LCLC-97TM1 | 0.203 | 0.25 | 0.184 | 0.189 | 0.427 | 0.487 | 0.492 | 0.418 | 0.412 | – | 0.244 | 0.15 | 0.154 | 0.193 | 0.221 | 0.225 | 0.154 |
| PC-3 [JPC-3] | 0.668 | 0.627 | 0.696 | 0.486 | 0.411 | 0.475 | 0.5 | 0.469 | 0.347 | 0.664 | 0.543 | 0.607 | 0.332 | 0.706 | 0.617 | 0.73 | 0.423 |
| NCI-H1648 | 0.38 | 0.511 | – | 0.412 | – | – | – | – | – | – | – | – | – | 0.462 | 0.649 | – | 0.626 |
| NCI-H1623 | – | – | – | – | – | 0.646 | 0.521 | 0.563 | 0.309 | – | – | – | – | – | – | – | – |
| SK-LU-1 | 0.379 | 0.383 | 0.407 | 0.236 | 0.635 | 0.57 | 0.461 | 0.296 | 0.258 | 0.422 | 0.357 | 0.494 | 0.325 | – | – | – | – |
| NCI-H661 | 0.524 | 0.697 | 0.589 | 0.648 | 0.252 | 0.277 | 0.247 | 0.279 | 0.27 | 0.36 | 0.416 | 0.403 | 0.399 | – | – | – | – |
| SK-MES-1 | 0.675 | 0.949 | 0.542 | 1 | 0.752 | 0.68 | 0.7 | 0.729 | 0.682 | 0.391 | 0.475 | 0.4 | 0.433 | – | – | – | – |
| NCI-H2023 | 0.421 | 0.525 | 0.595 | 0.36 | 0.431 | 0.442 | 0.467 | 0.401 | 0.449 | 0.227 | 0.288 | 0.172 | 0.246 | – | – | – | – |
| A549 | – | – | – | – | – | 0.161 | 0.136 | 0.147 | 0.177 | 0.474 | 0.477 | 0.585 | 0.505 | – | – | – | – |
| COR-L23 | 0.485 | 0.75 | 0.584 | 0.523 | 0.511 | 0.475 | 0.437 | 0.462 | 0.428 | 0.71 | 0.818 | 0.621 | 0.717 | – | – | – | – |
| Calu-6 | – | – | – | – | – | – | – | – | – | 0.779 | – | 0.939 | 0.698 | – | – | – | – |
| NCI-H2009 | 0.281 | 0.297 | 0.295 | 0.333 | 0.521 | 0.482 | 0.534 | 0.402 | 0.487 | 0.741 | 0.998 | 0.467 | 0.705 | – | – | – | – |
| NCI-H522 | 0.628 | 0.777 | 0.724 | 0.747 | 0.653 | 0.664 | 0.728 | 0.626 | 0.629 | – | – | – | – | 0.982 | 0.887 | 0.885 | 0.645 |
| NCI-H1563 | – | – | – | – | 0.671 | 0.689 | 0.668 | 0.602 | 0.643 | 0.644 | 0.642 | 0.62 | 0.729 | – | – | – | – |
| IA-LM | – | – | – | – | – | – | – | – | – | – | 0.355 | 0.347 | 0.314 | – | – | – | – |
| UMC-11 | 0.624 | 0.679 | 0.629 | 0.417 | 0.378 | 0.357 | 0.378 | 0.326 | 0.301 | 0.722 | 0.842 | 0.648 | 0.666 | – | – | – | – |
| NCI-H2342 | 0.792 | 0.922 | 0.693 | 0.932 | 0.57 | 0.629 | 0.625 | 0.662 | 0.563 | – | – | – | – | 0.429 | 0.43 | 0.49 | 0.556 |
